Measurements published in patent US20160120831A1, “INCREASE OF PROTEIN SYNTHESIS AMELIORATES SYNAPTOPATHY-RELATED NEUROLOGICAL DISORDERS” (Academia Sinica, priority 2014, published 2016).

Legend:
Nf1^+/- mice [1] = test: Golgi staining of mouse brains for dendritic spine density; type: in vivo; conditions: Nf1^+/- mice after taking leucine solution
Nf1^+/- mice [2] = test: Contextual fear conditioning; type: in vivo, mouse
Procedure: To examine the effect of leucine on contextual fear memory, mice (wild-type or Nf1^+/− mice) were provided with normal water or leucine supplement water (0.9-3.6 g/Kg) for 7 days prior to testing, which was continued through the entire behavioral task. Mice were subjected to contextual fear conditioning, which was carried out for 6 days with one trial per day. For the first 5 days, mice were placed into the conditioning chamber for 60 sec, then a single foot shock was performed (0.4 mA intensity for 2 sec). After the foot shock, mice were left in the chamber for another 120 sec before returning to their home cage. On the 6th day, mice were placed into the conditioning chamber for 180 sec without foot shock. Freezing responses during the first 10-60 sec of each trial were videotaped and measured using the FreezeScan 2.0 system (CleverSys). Nf1^+/− mice were used to study the effect of leucine on learning and memory, in which the effect was assessed by contextual fear conditioning as described in Materials and Methods. Briefly, wild-type or Nf1^+/− mice were administered water or leucine, as a supplement in water, for 7 days and then subjected to contextual fear conditioning (FIG. 4A). There was no difference in drinking preference for water or leucine solution between WT and Nf1^+/− mice, nor was there difference in weight gain between the two mice (FIG. 4B).

VCP^R95G-neurons = test: Azidohomoalanine (AHA) labelling of protein synthesis in neurons transfected with wild-type or mutant VCP; type: cell-based, mouse; conditions: leucine for 3 days, AHA label 1 hour
Procedure: FIG. 1A are confocal microscopy images of neurons that are respectively transfected with specified plasmids respectively expressing wild-type (WT) VCP and mutant VCP, and treated with 2.5 mM leucine for three days and labeled with azidohomoalanine (AHA) for 1 hour according to Example 1 of the present disclosure; the transfected neurons are either pointed by arrows or outlined; scale bar presents 20 μm; FIG. 1B is a histogram depicting the relative AHA intensity of neurons that were respectively transfected with specified plasmids, and treated with different concentrations of leucine for three days and labeled with AHA for 1 hour according to Example 1 of the present disclosure; data from three independent experiments are presented as mean plus standard error of mean (SEM); ns, no significance; ***, P<0.001; For primary neuronal culture, pregnant mice were sacrificed by subjecting to CO2 inhalation, and the fetal pups were isolated and sacrificed by decapitation. Then, cortical neurons were dissociated from the brains of embryonic mice of 18 days. The obtained neurons were cultured in Neurobasal medium, supplemented with 2% B27 supplement, 0.5 mM glutamine, and 12.5 μM glutamate in the density of 260,000 cells/cm^2. The cells were kept in a 5% CO2-humidified chamber at 37° C. […]

[3] = system: VCP^R95G-expressing neurons; test: Dendritic spine density of neurons transfected with VCP^WT or VCP^R95G plasmids; type: cell-based, mouse
Procedure: For primary neuronal culture, pregnant mice were sacrificed by subjecting to CO2 inhalation, and the fetal pups were isolated and sacrificed by decapitation. Then, cortical neurons were dissociated from the brains of embryonic mice of 18 days. The obtained neurons were cultured in Neurobasal medium, supplemented with 2% B27 supplement, 0.5 mM glutamine, and 12.5 μM glutamate in the density of 260,000 cells/cm^2. The cells were kept in a 5% CO2-humidified chamber at 37° C. The wild-type VCP gene was amplified by PCR using a forward primer having a nucleotide sequence of SEQ ID NO: 1, and a reverse primer having a nucleotide sequence of SEQ ID NO: 2. The amplified DNA segment was subsequently constructed in to GW1-Myc plasmid. To generate the […] mutation, a pair of primers respectively having nucleotide sequences of SEQ ID NOs: 3 and 4 were used in site-directed mutagenesis with wild-type VCP construct as a template. […] Images of neurons were recorded with a confocal microscope (LSM700, Zeiss) equipped with a Plan-Apochromat 63×NA 1.4 oil objective lens (Zeiss) and captured with Zen acquisition and analysis software (Zeiss) at 20-22° C. as a Z-series of 5-12 sections spaced 0.6-0.8 μm apart. […] To analyze dendritic spine density, the spine number of each dendrite fragment about 20 μm in length, which started from a point 20 μm away from the soma, was manually counted using Image J software. […]

ATL-1^R95G = test: Dendritic spine density of neurons expressing wild-type or mutant ATL1; type: cell-based, mouse; conditions: mutant ATL1 neurons; 2.5 mM or 5 mM leucine, 3 days; P<0.001
Procedure: For primary neuronal culture, pregnant mice were sacrificed by subjecting to CO2 inhalation, and the fetal pups were isolated and sacrificed by decapitation. Then, cortical neurons were dissociated from the brains of embryonic mice of 18 days. The obtained neurons were cultured in Neurobasal medium, supplemented with 2% B27 supplement, 0.5 mM glutamine, and 12.5 μM glutamate in the density of 260,000 cells/cm^2. The cells were kept in a 5% CO2-humidified chamber at 37° C. Mouse Atl1 was amplified by PCR with a primer set respectively having nucleotide sequences of SEQ ID NOs: 5 and 6. The amplified products were subcloned into the Gw1-Myc2b vector. The […] mutant was generated by site directed mutagenesis with a primer set respectively having nucleotide sequences of SEQ ID NOs: 7 and 8. Images of neurons were recorded with a confocal microscope (LSM700, Zeiss) equipped with a Plan-Apochromat 63×NA 1.4 oil objective lens (Zeiss) and captured with Zen acquisition and analysis software (Zeiss) at 20-22° C. as a Z-series of 5-12 sections spaced 0.6-0.8 μm apart. The Z-series was then projected into single images. […] To analyze dendritic spine density, the spine number of each dendrite fragment about 20 μm in length, which started from a point 20 μm away from the soma, was manually counted using Image J software. […]

SOD1-G93A mice = test: Animal model of amyotrophic lateral sclerosis (ALS), survival; type: in vivo, mouse; conditions: leucine supplement water 80 mg/day from 120 days old
Procedure: To examine the effect of leucine on ALS, 120 days old mice (wild-type or SOD1-G93A mice) were provided with normal water or leucine supplement water (80 mg/day) until animal died.
SOD1-G93A mouse is an animal model widely used in the art for ALS study. In this example, the SOD1-G93A transgenic mice were used to evaluate the effect of leucine on ALS.

Nf1^+/- neurons = test: Dendritic spine density of wild-type or Nf1^+/- neurons; type: cell-based, mouse
Procedure: For primary neuronal culture, pregnant mice were sacrificed by subjecting to CO2 inhalation, and the fetal pups were isolated and sacrificed by decapitation. Then, cortical neurons were dissociated from the brains of embryonic mice of 18 days. The obtained neurons were cultured in Neurobasal medium, supplemented with 2% B27 supplement, 0.5 mM glutamine, and 12.5 μM glutamate in the density of 260,000 cells/cm^2. The cells were kept in a 5% CO2-humidified chamber at 37° C. Images of neurons were recorded with a confocal microscope (LSM700, Zeiss) equipped with a Plan-Apochromat 63×NA 1.4 oil objective lens (Zeiss) and captured with Zen acquisition and analysis software (Zeiss) at 20-22° C. as a Z-series of 5-12 sections spaced 0.6-0.8 μm apart. The Z-series was then projected into single images. The images were processed with Photoshop (Adobe), with minimal adjustment of brightness or contrast applied to the whole images. To analyze dendritic spine density, the spine number of each dendrite fragment about 20 μm in length, which started from a point 20 μm away from the soma, was manually counted using Image J software. As dendritic spine formation is highly sensitive to culture conditions, each experiment was repeated using the same lot of culture medium. […] To minimize the effects of bias, some of the critical experiments were performed blind by relabeling the samples with the assistance of other lab members.

## CC(C)C[C@H](N)C(=O)O [leucine]
Nf1^+/- mice [1]
  dendritic spine density in brain: increase in dendritic spine density
Nf1^+/- mice [2]; Nf1^+/- mice after leucine administration
  freezing responses versus WT mice: comparable to those of WT mice
Nf1^+/- mice [2]; Nf1^+/- mice, leucine supplement water 0.9-3.6 g/Kg, oral
  associative memory (freezing response): significantly increase the associative memory
Nf1^+/- mice [2]; wild-type mice, leucine supplement water 0.9-3.6 g/Kg, oral
  fear memory (freezing response): did not further enhance the fear memory
VCP^R95G-neurons
  AHA intensity: dose-dependently increased the AHA intensity
[3]; VCP^R95G-dendrite fragment, leucine 2 mM (P<0.01) and 2.5 mM (P<0.001) vs basal, 3 days
  protrusion number of dendrite fragment: significantly increased the protrusion number
[3]; VCP^WT-dendrite fragment, leucine for 3 days
  protrusion number of dendrite fragment: did not produce obvious effect
ATL-1^R95G
  dendritic spine number: significantly increased the dendritic spine number
SOD1-G93A mice
  percentage of survival: significantly increased the percentage of survival
SOD1-G93A mice; control mice 147.3±3.84 days
  mean survival time: 172.0 ± 3.96 days
Nf1^+/- neurons; Nf1^+/- neurons, 2.5 mM leucine
  protrusion number versus wild-type neurons: equal to that of wild-type neurons
Nf1^+/- neurons; Nf1^+/- neurons, leucine for 3 days
  dendritic spine formation / dendritic spine number: significantly ameliorated the defect in dendritic spine formation
Nf1^+/- neurons; wild-type dendrite fragment, leucine for 3 days
  number of protrusions: did not further raise the number of protrusions
